{
  "source": "patent US20100028358A1",
  "about": "“Compositions and Methods for Controlling Tissue Factor Signaling Specificity” (priority 2005, published 2010)",
  "key": {"[1]": {"molecular_target": "tissue factor (TF) coagulant activity (Homo sapiens, UniProt P13726)", "sequence (P13726 33-295)": "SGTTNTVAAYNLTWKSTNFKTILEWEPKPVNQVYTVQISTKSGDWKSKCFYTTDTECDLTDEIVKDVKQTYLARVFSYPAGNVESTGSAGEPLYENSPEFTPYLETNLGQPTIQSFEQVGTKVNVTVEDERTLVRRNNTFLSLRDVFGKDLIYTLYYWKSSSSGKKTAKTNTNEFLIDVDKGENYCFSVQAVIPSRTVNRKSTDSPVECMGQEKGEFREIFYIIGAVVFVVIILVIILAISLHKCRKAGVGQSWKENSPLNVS", "experiment": "TF coagulant activity (Xa generation) on HaCaT cells", "assay_type": "cell-based"}, "PDI association with TF": {"molecular_target": "PDI association with TF (Homo sapiens, UniProt P07237)", "sequence (P07237 18-508)": "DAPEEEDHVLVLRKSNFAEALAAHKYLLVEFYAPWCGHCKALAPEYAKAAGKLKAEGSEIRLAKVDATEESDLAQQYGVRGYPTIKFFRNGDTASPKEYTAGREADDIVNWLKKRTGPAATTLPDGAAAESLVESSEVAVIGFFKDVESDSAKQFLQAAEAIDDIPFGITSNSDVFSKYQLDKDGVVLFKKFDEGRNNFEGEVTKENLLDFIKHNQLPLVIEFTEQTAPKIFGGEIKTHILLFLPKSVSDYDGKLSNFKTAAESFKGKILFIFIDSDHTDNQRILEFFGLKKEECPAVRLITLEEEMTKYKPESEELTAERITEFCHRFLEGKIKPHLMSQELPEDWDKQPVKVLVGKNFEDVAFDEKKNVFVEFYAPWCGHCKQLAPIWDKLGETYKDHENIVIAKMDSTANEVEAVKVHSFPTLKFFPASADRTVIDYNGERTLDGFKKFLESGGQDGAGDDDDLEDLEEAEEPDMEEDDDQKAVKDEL", "experiment": "Cell surface MPB/NHS labelling and TF immunoprecipitation (PDI association with TF)", "experimental": "Cell surface labelling, immunoprecipitation, confocal imaging Cells were washed and labelled in HEPES buffer with 1.5 mM calcium chloride with either 100 μM MPB or 0.5 mg/ml NHS biotin at 4° C. for 20 min. […] Blots were digitized for densitometry using NIH Image Scion. Cells were stained on ice with directly conjugated antibodies for confocal microscopy using a Nikon TE2000-U microscope. Optical sections of each fluorophor were merged using Adobe Photoshop."}, "TF-PAR2 complex": {"molecular_target": "TF-PAR2 complex (Homo sapiens, UniProt P13726)", "sequence (P13726 33-295, one chain of several)": "as the sequence (P13726 33-295) above", "experiment": "TF-PAR2 complex co-immunoprecipitation from HaCaT cells", "assay_type": "cell-based", "settings": "Hg2+ pretreatment, high Ca2+ cells", "description": "Additional studies as illustrated in FIG. 7 indicate that TF-VIIa signaling requires TF.PAR2 complex formation. […] Loading controls were not feasible due to background, because no PAR suitable antibody from a different species was available for Western-blotting. […] MPB-labeled cells were immunoprecipitated with MAb-9C3 or MAb-10H10 and probed for PDI, TF or thiol-biotinylation with MPB."}, "TF-VIIa signaling": {"tested_on": "TF-VIIa signaling", "experiment": "TF-VIIa signaling in HaCaT cells (MAP kinase phosphorylation)"}},
  "note": "Read-outs that look alike come from different tables or passages of the source. Where a SMILES comes first, the peptide text is derived from it. Bridges are numbered along the chain shown (N, C = ends). [ ]: non-standard residue; d: D form. The star is where a group is joined. Ileψ(thiazoline)Cys = CC[C@H](C)[C@H](N)C1=N[C@H](C(=O)*)CS1; dOrn = NCCC[C@@H](N)C(=O)O",
  "data": [
    {"smiles": "N[C@@H](CCC(=O)N[C@@H](CS)C(=O)NCC(=O)O)C(=O)O", "note": "[GSH, reduced glutathione]", "values": [
      {"measurement": "TF coagulant activity after Hg2+-induced activation and washout", "setting": "[1]", "result": "no effect on TF activity"}
    ]},
    {"smiles": "[Cl][Hg][Cl]", "note": "[HgCl2]", "values": [
      {"measurement": "Concentration required to enhance TF coagulant activity", "setting": "[1]", "result": "50 to 100", "unit": "µM"},
      {"measurement": "HgCl2 activation of coagulation in the presence of bacitracin", "setting": "[1]", "result": "did not increase coagulation in the presence of bacitracin"},
      {"measurement": "TF coagulant activity in high Ca2+ cells", "setting": "[1]", "result": "increased TF coagulant activity substantially"},
      {"measurement": "TF coagulant activity in low Ca2+ cells", "setting": "[1]", "result": "little effect"},
      {"measurement": "Association (co-precipitation) of PDI with TF", "setting": "PDI association with TF", "result": "specifically disrupted the association of PDI with TF"},
      {"measurement": "PAR2 complex formation with TF in MAb-5G9 immunoprecipitates", "setting": "TF-PAR2 complex", "result": "abolished PAR2 complex formation with TF"}
    ]},
    {"smiles": "N[C@@H](CCC(=O)N[C@@H](CSN=O)C(=O)NCC(=O)O)C(=O)O", "note": "[S-nitrosoglutathione]", "values": [
      {"measurement": "TF coagulant activity after Hg2+-induced activation and washout", "setting": "[1]", "result": "sufficient to suppress TF coagulant activity"}
    ]},
    {"smiles": "CC[C@H](C)[C@H](N)C1=N[C@H](C(=O)N[C@@H](CC(C)C)C(=O)N[C@H](CCC(=O)O)C(=O)N[C@H](C(=O)N[C@H]2CCCCNC(=O)[C@H](CC(N)=O)NC(=O)[C@@H](CC(=O)O)NC(=O)[C@H](Cc3cnc[nH]3)NC(=O)[C@@H](Cc3ccccc3)NC(=O)[C@H]([C@@H](C)CC)NC(=O)[C@@H](CCCN)NC2=O)[C@@H](C)CC)CS1", "note": "[bacitracin] ({Ileψ(thiazoline)Cys}-L[dE]IK[dOrn]I[dF]H[dD]N; lactam 4-C)", "values": [
      {"measurement": "HgCl2 activation of coagulation in the presence of bacitracin", "setting": "[1]; HgCl2 with bacitracin", "result": "reversible inhibitor of HgCl2 activation"},
      {"measurement": "TF coagulant activity in high Ca2+ cells", "setting": "[1]; high Ca2+ HaCaT cells, 100 μM HgCl2 for 2 minutes, bacitracin 3 mM", "result": "slightly increased coagulant function of TF"},
      {"measurement": "Association (co-precipitation) of PDI with TF", "setting": "PDI association with TF; high Ca2+ HaCaT cells", "result": "prevented the co-precipitation of PDI with TF"},
      {"measurement": "TF-VIIa signaling", "setting": "TF-VIIa signaling; HaCaT cells, 10 nM VIIa", "result": "inhibited TF-VIIa signaling"}
    ]},
    {"smiles": "C[C@@H]1C[C@@H]([C@H](O)CC2CC(=O)NC(=O)C2)C(=O)[C@@H](C)C1", "note": "[cycloheximide]", "values": [
      {"measurement": "TF-VIIa signaling", "setting": "TF-VIIa signaling", "result": "prevented TF-VIIa signaling"}
    ]}
  ]
}
